# Columns and labels:
# Type in all cases: functional
# Staphylococcus aureus [1] = experiment: Antibacterial activity against methicillin-resistant Staphylococcus aureus 10281-2 clinical isolate after 20 to 24 hrs by two-fold microdilution method
# Staphylococcus aureus [2] = experiment: Antibacterial activity against methicillin-resistant Staphylococcus aureus 1216052 clinical isolate after 20 to 24 hrs by two-fold microdilution method
# Staphylococcus aureus [3] = experiment: Antibacterial activity against methicillin-resistant Staphylococcus aureus 20106-2 clinical isolate after 20 to 24 hrs by two-fold microdilution method
# Staphylococcus aureus [4] = experiment: Antibacterial activity against methicillin-resistant Staphylococcus aureus 110834 clinical isolate after 20 to 24 hrs by two-fold microdilution method
# Staphylococcus aureus [5] = experiment: Antibacterial activity against methicillin-resistant Staphylococcus aureus 131215 clinical isolate after 20 to 24 hrs by two-fold microdilution method
# Staphylococcus aureus [6] = experiment: Antibacterial activity against methicillin-resistant Staphylococcus aureus 831024 clinical isolate after 20 to 24 hrs by two-fold microdilution method
# Staphylococcus aureus [7] = experiment: Antibacterial activity against methicillin-resistant Staphylococcus aureus 121969 clinical isolate after 20 to 24 hrs by two-fold microdilution method
# Staphylococcus aureus [8] = experiment: Antibacterial activity against methicillin-resistant Staphylococcus aureus 1024004-2 clinical isolate after 20 to 24 hrs by two-fold microdilution method
# Staphylococcus aureus [9] = experiment: Antibacterial activity against methicillin-resistant Staphylococcus aureus 110432 clinical isolate after 20 to 24 hrs by two-fold microdilution method
# Staphylococcus aureus [10] = experiment: Antibacterial activity against methicillin-resistant Staphylococcus aureus 20339 clinical isolate after 20 to 24 hrs by two-fold microdilution method
# Staphylococcus aureus [11] = experiment: Antibacterial activity against methicillin-resistant Staphylococcus aureus 112106 clinical isolate after 20 to 24 hrs by two-fold microdilution method
# Staphylococcus aureus [12] = experiment: Antibacterial activity against methicillin-resistant Staphylococcus aureus 822030 clinical isolate after 20 to 24 hrs by two-fold microdilution method
# Staphylococcus aureus [13] = experiment: Antibacterial activity against methicillin-resistant Staphylococcus aureus 202045 clinical isolate after 20 to 24 hrs by two-fold microdilution method
# Staphylococcus aureus [14] = experiment: Antibacterial activity against methicillin-resistant Staphylococcus aureus 10844 clinical isolate after 20 to 24 hrs by two-fold microdilution method
# Staphylococcus aureus [15] = experiment: Antibacterial activity against methicillin-resistant Staphylococcus aureus 921026 clinical isolate after 20 to 24 hrs by two-fold microdilution method
# Staphylococcus aureus [16] = experiment: Antibacterial activity against methicillin-resistant Staphylococcus aureus 1113041 clinical isolate after 20 to 24 hrs by two-fold microdilution method
# Streptococcus pyogenes = experiment: Antibacterial activity against Streptococcus pyogenes ATCC 19615 after 20 to 24 hrs by two-fold microdilution method
# Staphylococcus aureus [17] = experiment: Antibacterial activity against methicillin-resistant Staphylococcus aureus 614019 clinical isolate after 20 to 24 hrs by two-fold microdilution method
# Staphylococcus aureus [18] = experiment: Antibacterial activity against methicillin-resistant Staphylococcus aureus 531220 clinical isolate after 20 to 24 hrs by two-fold microdilution method
# Staphylococcus aureus [19] = experiment: Antibacterial activity against methicillin-resistant Staphylococcus aureus GLH14 clinical isolate after 20 to 24 hrs by two-fold microdilution method
# Staphylococcus aureus [20] = experiment: Antibacterial activity against methicillin-resistant Staphylococcus aureus 118038 clinical isolate after 20 to 24 hrs by two-fold microdilution method
# Staphylococcus aureus [21] = experiment: Antibacterial activity against methicillin-resistant Staphylococcus aureus 110328-1 clinical isolate after 20 to 24 hrs by two-fold microdilution method
# Staphylococcus aureus [22] = experiment: Antibacterial activity against methicillin-resistant Staphylococcus aureus GLH15 clinical isolate after 20 to 24 hrs by two-fold microdilution method
# Staphylococcus aureus [23] = experiment: Antibacterial activity against methicillin-resistant Staphylococcus aureus 122820-2 clinical isolate after 20 to 24 hrs by two-fold microdilution method
# Staphylococcus aureus [24] = experiment: Antibacterial activity against methicillin-resistant Staphylococcus aureus 122710-2 clinical isolate after 20 to 24 hrs by two-fold microdilution method
# Staphylococcus aureus [25] = experiment: Antibacterial activity against methicillin-resistant Staphylococcus aureus 1026021 clinical isolate after 20 to 24 hrs by two-fold microdilution method
# Staphylococcus aureus [26] = experiment: Antibacterial activity against methicillin-resistant Staphylococcus aureus 304243 clinical isolate after 20 to 24 hrs by two-fold microdilution method
# Staphylococcus aureus [27] = experiment: Antibacterial activity against methicillin-resistant Staphylococcus aureus 102849 clinical isolate after 20 to 24 hrs by two-fold microdilution method
# Staphylococcus aureus [28] = experiment: Antibacterial activity against methicillin-resistant Staphylococcus aureus 414244 clinical isolate after 20 to 24 hrs by two-fold microdilution method
# Staphylococcus aureus [29] = experiment: Antibacterial activity against methicillin-resistant Staphylococcus aureus 120827 clinical isolate after 20 to 24 hrs by two-fold microdilution method
# Staphylococcus aureus [30] = experiment: Antibacterial activity against […] Staphylococcus aureus ATCC 25923 after 20 to 24 hrs by two-fold microdilution method
# Staphylococcus aureus [31] = experiment: Antibacterial activity against methicillin-resistant Staphylococcus aureus 221014 clinical isolate after 20 to 24 hrs by two-fold microdilution method
# Staphylococcus aureus [32] = experiment: Antibacterial activity against methicillin-resistant Staphylococcus aureus 908046 clinical isolate after 20 to 24 hrs by two-fold microdilution method
# Staphylococcus aureus [33] = experiment: Antibacterial activity against methicillin-resistant Staphylococcus aureus 111423 clinical isolate after 20 to 24 hrs by two-fold microdilution method
# Staphylococcus aureus [34] = experiment: Antibacterial activity against methicillin-resistant Staphylococcus aureus 1029025 clinical isolate after 20 to 24 hrs by two-fold microdilution method
# Staphylococcus aureus [35] = experiment: Antibacterial activity against methicillin-resistant Staphylococcus aureus 1107027 clinical isolate after 20 to 24 hrs by two-fold microdilution method
# Staphylococcus aureus [36] = experiment: Antibacterial activity against methicillin-resistant Staphylococcus aureus 123152 clinical isolate after 20 to 24 hrs by two-fold microdilution method
# Staphylococcus aureus [37] = experiment: Antibacterial activity against methicillin-resistant Staphylococcus aureus 1108204 clinical isolate after 20 to 24 hrs by two-fold microdilution method
# Staphylococcus aureus [38] = experiment: Antibacterial activity against methicillin-resistant Staphylococcus aureus 1012029 clinical isolate after 20 to 24 hrs by two-fold microdilution method
# Staphylococcus aureus [39] = experiment: Antibacterial activity against methicillin-resistant Staphylococcus aureus 121026 clinical isolate after 20 to 24 hrs by two-fold microdilution method
# Staphylococcus aureus [40] = experiment: Antibacterial activity against methicillin-resistant Staphylococcus aureus 1023043 clinical isolate after 20 to 24 hrs by two-fold microdilution method
# Staphylococcus aureus [41] = experiment: Antibacterial activity against methicillin-resistant Staphylococcus aureus 503025 clinical isolate after 20 to 24 hrs by two-fold microdilution method
# Staphylococcus aureus [42] = experiment: Antibacterial activity against methicillin-resistant Staphylococcus aureus clinical isolate after 20 to 24 hrs by two-fold microdilution method
# Staphylococcus aureus [43] = experiment: Antibacterial activity against methicillin-resistant Staphylococcus aureus 829034 clinical isolate after 20 to 24 hrs by two-fold microdilution method
# Staphylococcus aureus [44] = experiment: Antibacterial activity against methicillin-resistant Staphylococcus aureus 111625 clinical isolate after 20 to 24 hrs by two-fold microdilution method
# Staphylococcus aureus [45] = experiment: Antibacterial activity against methicillin-resistant Staphylococcus aureus 109016 clinical isolate after 20 to 24 hrs by two-fold microdilution method
# Staphylococcus aureus [46] = experiment: Antibacterial activity against methicillin-resistant Staphylococcus aureus 221022 clinical isolate after 20 to 24 hrs by two-fold microdilution method
compound,measurement,setting,value
CN1CCN(CCCCCCOC(=O)c2c3c(n4cc(Br)ccc24)C(=O)c2ncccc2C3=O)CC1,MIC,Staphylococcus aureus [1],≤ 0.0078 µg/mL
same,MIC,Staphylococcus aureus [2],16 µg/mL
same,MIC,Staphylococcus aureus [3],0.25 µg/mL
same,MIC,Staphylococcus aureus [4],0.125 µg/mL
same,MIC,Staphylococcus aureus [5],0.063 µg/mL
same,MIC,Staphylococcus aureus [6],≤ 0.0078 µg/mL
same,MIC,Staphylococcus aureus [7],0.125 µg/mL
same,MIC,Staphylococcus aureus [8],0.25 µg/mL
same,MIC,Staphylococcus aureus [9],0.125 µg/mL
same,MIC,Staphylococcus aureus [10],0.5 µg/mL
same,MIC,Staphylococcus aureus [11],0.25 µg/mL
same,MIC,Staphylococcus aureus [12],0.25 µg/mL
same,MIC,Staphylococcus aureus [13],0.25 µg/mL
same,MIC,Staphylococcus aureus [14],≤ 0.0078 µg/mL
same,MIC,Staphylococcus aureus [15],≤ 0.0078 µg/mL
same,MIC,Staphylococcus aureus [16],0.125 µg/mL
same,MIC,Streptococcus pyogenes,2 µg/mL
same,MIC,Staphylococcus aureus [17],0.125 µg/mL
same,MIC,Staphylococcus aureus [18],≤ 0.0078 µg/mL
same,MIC,Staphylococcus aureus [19],0.063 µg/mL
same,MIC,Staphylococcus aureus [20],0.25 µg/mL
same,MIC,Staphylococcus aureus [21],≤ 0.0078 µg/mL
same,MIC,Staphylococcus aureus [22],0.125 µg/mL
same,MIC,Staphylococcus aureus [23],0.063 µg/mL
same,MIC,Staphylococcus aureus [24],0.063 µg/mL
same,MIC,Staphylococcus aureus [25],16 µg/mL
same,MIC,Staphylococcus aureus [26],0.25 µg/mL
same,MIC,Staphylococcus aureus [27],0.125 µg/mL
same,MIC,Staphylococcus aureus [28],0.063 µg/mL
same,MIC,Staphylococcus aureus [29],0.016 µg/mL
same,MIC,Staphylococcus aureus [30],≤ 0.0078 µg/mL
same,MIC,Staphylococcus aureus [31],0.125 µg/mL
same,MIC,Staphylococcus aureus [32],0.063 µg/mL
same,MIC,Staphylococcus aureus [33],16 µg/mL
same,MIC,Staphylococcus aureus [34],0.063 µg/mL
same,MIC,Staphylococcus aureus [35],0.25 µg/mL
same,MIC,Staphylococcus aureus [36],0.25 µg/mL
same,MIC,Staphylococcus aureus [37],0.5 µg/mL
same,MIC,Staphylococcus aureus [38],0.016 µg/mL
same,MIC,Staphylococcus aureus [39],0.031 µg/mL
same,MIC,Staphylococcus aureus [40],0.125 µg/mL
same,MIC,Staphylococcus aureus [41],0.25 µg/mL
same,MIC50,Staphylococcus aureus [42],0.125 µg/mL
same,MIC90,Staphylococcus aureus [42],0.5 µg/mL
same,MIC,Staphylococcus aureus [43],0.5 µg/mL
same,MIC,Staphylococcus aureus [44],0.125 µg/mL
same,MIC,Staphylococcus aureus [45],0.031 µg/mL
same,MIC,Staphylococcus aureus [46],0.125 µg/mL

# From ChEMBL document CHEMBL4004803, “Syntheses and antibacterial activity of soluble 9-bromo substituted indolizinoquinoline-5,12-dione derivatives” (Eur J Med Chem, 2017)
